Data published in paper PMC6600592, “Design, Synthesis, and Bioactive Screen In Vitro of Cyclohexyl (E)-4-(Hydroxyimino)-4-Phenylbutanoates and Their Ethers for Anti-Hepatitis B Virus Agents” (Molecules, 2019).
Like-named read-outs stand apart in the source and are kept apart here.

What was measured:
[1] = Cytotoxicity in HepG 2.2.15 cells (MTT assay, nine days); assay type: cell-based, human; details: human, after nine days, read-out: CC50 (50% cytotoxicity concentration)
Method: (§1) These synthesized compounds were evaluated for anti-HBV activity with referring to reported method. The HepG2.2.15 cell, a human hepatoblastoma cell line stably transfected with cloned HBV DNA, was obtained from Chinese Academy of Medical Sciences (Beijing, China), and was cultured in Dulbecco’s Modified Eagle’s Medium (DMEM) supplemented with 10% fetal bovine serum and 1.5 g/L of sodium bicarbonate, 10 mL/L of streptomycin, 10 mL/L of penicillin, and 200 mg/L of G418 at 37 °C in a 5% CO2 atmosphere with 95–98% humidity. Then, HepG2.2.15 cell was plated at a density of 1 × 10^5 cells/mL in 96-well plates and incubated at 37 °C for 24 h and then treated with variant concentration of compounds in […]; every three days, in a nine day period, C (OD) values were recorded at 450 nm. After nine days, the percent of cell death was measured using the method of MTT assay after drug treatment. Cytotoxicity of these compounds was expressed as the concentration of compound required to kill 50% (CC50) of the HepG 2.2.15 cells.

HBsAg = assay: cells; details: for HBsAg SI (selectivity index = CC50/IC50): CC50/IC50 for HBsAg
Method: as §1
(§2) Method for the HBsAg and HBeAg Inhibition Assays. The levels of HBV surface antigen (HBsAg) and HBV e antigen (HBeAg) in the supernatant of the HepG2.2.15 cells were determined by the enzyme-linked immunosorbent assay (ELISA) according to the manufacturer’s protocol (Shanghai Kehua Biotech Co., Ltd., Shanghai, China). The synthesized compounds were expressed as the concentration that achieved 50% inhibition (IC50) to the secretion of HBsAg and HBeAg. The selectivity index (SI) was determined as the ratio of CC50 to IC50 which a major pharmaceutical parameter of estimates possible future clinical application.

HBeAg = assay: cells; details: for HBeAg SI (selectivity index = CC50/IC50): CC50/IC50 for HBeAg
Method: as §1, §2

HepG 2.2.15 cells = assay: Cytotoxicity in HepG 2.2.15 cells (MTT assay, nine days); assay type: cell-based, human; details: after nine days, read-out: CC50 (50% cytotoxicity concentration)
Method: as §1

[2] = Hepatitis B virus, HepG2.2.15, read-out: HBsAg IC50
[3] = Hepatitis B virus, HepG2.2.15, read-out: HBeAg IC50
[4] = read-out: HBsAg IC50, secretion of HBsAg, HepG 2.2.15 cells, mean ± S.E.M., n = 3
[5] = read-out: HBeAg IC50, secretion of HBeAg, HepG 2.2.15 cells, mean ± S.E.M., n = 3

| Compound | CC50 at 9 days [1] [µM] | HBsAg SI (selectivity index = CC50/IC50) (HBsAg; HepG 2.2.15 cells) | IC50 (HBsAg; [2]) [µM] | HBeAg SI (selectivity index = CC50/IC50) (HBeAg; HepG 2.2.15 cells) | IC50 (HBeAg; [3]) [µM] | IC50 (HBsAg; [4]) [µM] | IC50 (HBeAg; [5]) [µM] | CC50 (HepG 2.2.15 cells) [µM] |
| --- | --- | --- | --- | --- | --- | --- | --- | --- |
| Nc1ccn([C@@H]2CS[C@H](CO)O2)c(=O)n1 [Compound 3TC, Lamivudine, reference compound] | 516 |  |  |  |  |  |  |  |
| O=C(CC/C(=N\O)c1ccccc1)OC1CCCCC1 [Compound 4A-1, Cyclohexyl (E)-4-hydroxyimino-4-phenylbutanoate] | 528 | 1.04 | 506 ± 28.6 | 1.41 | 375 ± 36.2 |  |  |  |
| CO/N=C(\CCC(=O)OC1CCCCC1)c1ccccc1 [Compound 4A-2, Cyclohexyl (E)-4-methoxyimino-4-phenylbutanoate] | 660 | 6.03 | 109 ± 16.1 | 5.55 | 119 ± 13.2 |  |  |  |
| O=C(CC/C(=N\OCc1ccccc1)c1ccccc1)OC1CCCCC1 [Compound 4A-3, Cyclohexyl (E)-4-benzyloxyimino-4-phenylbutanoate] | 974 | 8.58 | 114 ± 6.15 | 7.53 | 129 ± 13.6 |  |  |  |
| Cc1ccc(/C(CCC(=O)OC2CCCCC2)=N/O)cc1 [Compound 4B-1, Cyclohexyl (E)-4-hydroxyimino-4-(4-methylphenyl)butanoate] | 444 | 1.72 | 257 ± 16.5 | 1.56 | 284 ± 26.7 |  |  |  |
| Cc1ccc(/C(CCC(=O)OC2CCCCC2)=N/OCc2ccccc2)cc1 [Compound 4B-3, Cyclohexyl (E)-4-benzyloxyimino-4-(4-methylphenyl)butanoate] | 860 | 10.95 | 78.5 ± 9.87 | 10.16 | 84.6 ± 6.6 |  |  |  |
| COc1ccc(/C(CCC(=O)OC2CCCCC2)=N/O)cc1 [Compound 4C-1, Cyclohexyl (E)-4-hydroxyimino-4-(4-methoxyphenyl)butanoate] | 481 | 0.98 | 489 ± 11.2 | 1.19 | 405 ± 4.8 |  |  |  |
| CO/N=C(\CCC(=O)OC1CCCCC1)c1ccc(OC)cc1 [Compound 4C-2, Cyclohexyl (E)-4-methoxyimino-4-(4-methoxyphenyl)butanoate] | 630 | 5.94 | 106 ± 8.67 | 4.92 | 128 ± 34.6 |  |  |  |
| COc1ccc(/C(CCC(=O)OC2CCCCC2)=N/OCc2ccccc2)cc1 [Compound 4C-3, Cyclohexyl (E)-4-benzyloxyimino-4-(4-methoxyphenyl)butanoate] | 678 | 6.08 | 112 ± 7.25 | 5.20 | 130 ± 21.5 |  |  |  |
| CO/N=C(\CCC(=O)OC1CCCCC1)c1ccc(Cl)cc1 [Compound 4D-2, Cyclohexyl (E)-4-methoxyimino-4-(4-chlorophenyl)butanoate] | 581 | 8.59 | 67.7 ± 8.81 | 6.83 | 85.1 ± 11.9 |  |  |  |
| O=C(CC/C(=N\OCc1ccccc1)c1ccc(Cl)cc1)OC1CCCCC1 [Compound 4D-3, Cyclohexyl (E)-4-benzyloxyimino-4-(4-chlorophenyl)butanoate] | 604 | 6.53 | 92.6 ± 4.94 | 6.25 | 96.8 ± 5.13 |  |  |  |
| Cyclohexyl (E)-4-hydroxyimino-4-(4-chlorophenyl)butanimidate [Compound 4D-1] |  |  |  |  |  | 352 ± 11 | 373 ± 16.9 | 396 |
| Cyclohexyl (E)-4-methoxyimino-4-(4-methoxyphenyl)butanoate [Compound 4B-2] |  |  |  |  |  | 63.9 ± 6.26 | 49.4 ± 4.17 | 856 |
